One block for each molecule: values may come before it.
Tests used:
[1] = biological target: T1, Prostaglandin G/H synthase 1 (Homo sapiens, UniProt P23219); assay: In vitro inhibitory activity against Prostaglandin G/H synthase 1 in human whole blood assay
[2] = biological target: T1, Prostaglandin G/H synthase 1; type: tissue-based, Blood
Description: Inhibitory activity against Prostaglandin G/H synthase 1 in human whole blood

[3] = biological target: T1, Prostaglandin G/H synthase 1; assay: Inhibitory activity against Human Cyclooxygenase-1 ( COX-1 ) in U937 Microsome COX-1 assay
Rattus norvegicus [4] = assay: In vivo effective concentration of compound in rat adjuvant arthritis; type: functional
Rattus norvegicus [5] = assay: In vivo effective concentration of compound in rat hyperalgesia; type: functional
Rattus norvegicus [6] = assay: In vivo effective concentration of compound in rat pyresis; type: functional
Rattus norvegicus [7] = assay: In vivo effective concentration of compound in rat paw edema; type: functional
[8] = Maximal concentration (Cmax) in dog plasma at a dose of […] mg/kg; type: ADME, organism-based, Canis lupus familiaris; details: 5 mg/kg
[9] = Half life by ''Cr'' assay in dog at a dose of 5 mg/kg; type: ADME, organism-based, Canis lupus familiaris; design: dose 5 mg/kg; details: in vivo
[10] = Half life the of compound was determined by ''Cr'' assay in squirrel monkey at a dose of 5 mg/kg; type: ADME, organism-based; design: dose 5 mg/kg; details: in vivo
[11] = biological target: T1, Prostaglandin G/H synthase 1; assay: Inhibitory activity against Human Prostaglandin G/H synthase 1 in U937 Microsome COX-1 assay at a concentration of 30 uM
[12] = Maximal concentration (Cmax) in the rat plasma at a dose of 10 mg/kg; type: ADME, organism-based; design: dose 10 mg/kg
[13] = Half life the of compound was determined by ''Cr'' assay in rat at a dose of 10 mg/kg; type: ADME, organism-based; design: dose 10 mg/kg; details: in vivo
[14] = Half life by ''Cr'' assay in rhesus monkey at a dose of 5 mg/kg; type: ADME, organism-based; design: dose 5 mg/kg; details: cercopithecidae, in vivo
[15] = Maximal concentration (Cmax) in rhesus monkey plasma at a dose of 5 mg/kg; type: ADME, organism-based; design: dose 5 mg/kg; details: cercopithecidae
[16] = Maximal concentration (Cmax) in squirrel monkey plasma at a dose of 5 mg/kg; type: ADME, organism-based; design: dose 5 mg/kg
[17] = biological target: T1, Prostaglandin G/H synthase 1; assay: Inhibitory activity against Human Prostaglandin G/H synthase 1 in U937 Microsome COX-1 assay

T1 sequence (P23219 whole entry): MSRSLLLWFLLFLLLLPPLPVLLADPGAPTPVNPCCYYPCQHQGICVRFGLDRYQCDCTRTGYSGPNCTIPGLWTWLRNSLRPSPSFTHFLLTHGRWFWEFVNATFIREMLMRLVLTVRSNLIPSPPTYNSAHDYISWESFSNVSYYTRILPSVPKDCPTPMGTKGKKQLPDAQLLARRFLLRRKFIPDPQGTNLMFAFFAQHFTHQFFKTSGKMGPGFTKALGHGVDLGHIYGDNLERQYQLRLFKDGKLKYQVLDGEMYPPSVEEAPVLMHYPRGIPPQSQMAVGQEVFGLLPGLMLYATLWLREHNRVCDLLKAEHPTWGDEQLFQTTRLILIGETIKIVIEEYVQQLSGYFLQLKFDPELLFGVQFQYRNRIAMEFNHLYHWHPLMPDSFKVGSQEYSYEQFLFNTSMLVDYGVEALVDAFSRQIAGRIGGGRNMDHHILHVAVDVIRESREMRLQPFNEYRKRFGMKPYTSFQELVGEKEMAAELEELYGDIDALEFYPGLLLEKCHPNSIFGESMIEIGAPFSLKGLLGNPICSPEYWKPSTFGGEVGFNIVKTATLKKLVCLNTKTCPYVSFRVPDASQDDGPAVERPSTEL

- IC50 [1]: > 58 µM
Compound: CC1(C)OC(=O)C(OC2CCCCC2)=C1c1ccc(S(C)(=O)=O)cc1

- IC50 [2]: 36 µM
- IC50 [3]: 6.5 µM
Compound: CC(OC1=C(c2ccc(S(C)(=O)=O)cc2)C(C)(C)OC1=O)C1CC1 (configuration not stated)

- IC50 [2]: 10 µM
Compound: CCC(C)OC1=C(c2ccc(S(C)(=O)=O)cc2)C(C)(C)OC1=O (configuration not stated)

- IC50 [2]: > 100 µM
Compound: CC1(C)OC(=O)C(OC2CCCC2)=C1c1ccc(S(C)(=O)=O)cc1

More lines, now with the values behind:

Compound: CC1(C)OC(=O)C(OC2CCC2)=C1c1ccc(S(C)(=O)=O)cc1
- IC50 [2]: 30 µM

Compound: COc1ccc2c(c1)c(CC(=O)O)c(C)n2C(=O)c1ccc(Cl)cc1 [INDOMETHACIN]
- ED50 (Rattus norvegicus [4]): 0.2 mg/kg
- ED50 (Rattus norvegicus [5]): 1.5 mg/kg
- ED50 (Rattus norvegicus [6]): 1.1 mg/kg
- ED50 (Rattus norvegicus [7]): 2 mg/kg

Compound: CC(C)OC1=C(c2ccc(S(C)(=O)=O)cc2)C(C)(C)OC1=O
- Cmax [8]: 12 µM
- half-life [9]: 4.8 h
- half-life [10]: 1.4 h
- IC50 [2]: > 100 µM
- inhibition [11]: 32%
- Cmax [12]: 15 µM
- ED50 (Rattus norvegicus [4]): 0.15 mg/kg
- half-life [13]: 7.1 h
- ED50 (Rattus norvegicus [5]): 0.8 mg/kg
- half-life [14]: 2 h
- Cmax [15]: 3 µM
- Cmax [16]: 5.5 µM
- ED50 (Rattus norvegicus [6]): 0.3 mg/kg
- ED50 (Rattus norvegicus [7]): 0.8 mg/kg

Compound: CCC(CC)OC1=C(c2ccc(S(C)(=O)=O)cc2)C(C)(C)OC1=O
- IC50 [2]: 39 µM

Compound: CC1(C)OC(=O)C(OCC2CC2)=C1c1ccc(S(C)(=O)=O)cc1 [FIROCOXIB]
- IC50 [2]: > 100 µM
- IC50 [17]: 25 µM
